Results: ChEMBL document CHEMBL1201862, “PubChem BioAssay data set” (2004)
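96-well plates; 48 h exposure; 5 concentrations. Endpoints by linear interpolation between flanking doses. Not reached: highest tested concentration assigned. GI50: concentration for 50% inhibition of growth.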 Active and inactive are the calls of the source. No stated cut-off is given here; in the data, active = GI50 up to about 1.1 µM and inactive = higher.

Columns and labels:
Test in all cases: NCI anticancer screen, dose series, 48 h
KM12 = test system: KM12
SK-OV-3 = test system: SK-OV-3
NCI-H226 = test system: NCI-H226
HCT-116 = test system: HCT-116
HOP-62 = test system: HOP-62
OVCAR-4 = test system: OVCAR-4
NCI-H460 = test system: NCI-H460
SK-MEL-5 = test system: SK-MEL-5
TK-10 = test system: TK-10
LXFL 529 = test system: LXFL 529
CAKI-1 = test system: CAKI-1
UACC-257 = test system: UACC-257
SW-620 = test system: SW-620
KM-20L2 = test system: KM-20L2
CCRF-CEM = test system: CCRF-CEM
Malme-3M = test system: Malme-3M
SF-539 = test system: SF-539
SNB-75 = test system: SNB-75
U-251 = test system: U-251
OVCAR-3 = test system: OVCAR-3
HOP-18 = test system: HOP-18
HCC 2998 = test system: HCC 2998
SNB-19 = test system: SNB-19
NCI-H522 = test system: NCI-H522
UACC-62 = test system: UACC-62
K562 = test system: K562
COLO 205 = test system: COLO 205
HCT-15 = test system: HCT-15
SR = test system: SR
DLD-1 = test system: DLD-1
786-0 = test system: 786-0
M19-MEL = test system: M19-MEL
A498 = test system: A498
SF-268 = test system: SF-268
RXF 393 = test system: RXF 393
RPMI-8226 = test system: RPMI-8226
SK-MEL-28 = test system: SK-MEL-28
M14 = test system: M14
SNB-78 = test system: SNB-78
SK-MEL-2 = test system: SK-MEL-2
ACHN = test system: ACHN
DMS-114 = test system: DMS-114
UO-31 = test system: UO-31
IGROV-1 = test system: IGROV-1
DMS-273 = test system: DMS-273
SN12C = test system: SN12C
A549 = test system: A549
HL-60 = test system: HL-60
MOLT-4 = test system: MOLT-4
OVCAR-8 = test system: OVCAR-8
LOX IMVI = test system: LOX IMVI
OVCAR-5 = test system: OVCAR-5
HT-29 = test system: HT-29
SF-295 = test system: SF-295
NCI-H23 = test system: NCI-H23
HOP-92 = test system: HOP-92
EKVX = test system: EKVX

With `CC1CC(C[N+](=O)[O-])CC2(C1)OCCO2` (configuration not stated) the GI50 (KM12) was > 100 µM (inactive), the GI50 (SK-OV-3) was > 100 µM (inactive) and the GI50 (NCI-H226) was > 100 µM (inactive). The GI50 (HCT-116) was > 100 µM (inactive), the GI50 (HOP-62) was > 100 µM (inactive) and the GI50 (OVCAR-4) was > 100 µM (inactive). The GI50 (NCI-H460) was > 100 µM (inactive), the GI50 (SK-MEL-5) was > 100 µM (inactive) and the GI50 (TK-10) was > 100 µM (inactive). For the same compound, the GI50 (LXFL 529) was > 100 µM (inactive), the GI50 (CAKI-1) was > 100 µM (inactive) and the GI50 (UACC-257) was > 100 µM (inactive). For the same compound, the GI50 (SW-620) was > 100 µM (inactive), the GI50 (KM-20L2) was > 100 µM (inactive) and the GI50 (CCRF-CEM) was > 100 µM (inactive). The GI50 (Malme-3M) was > 100 µM (inactive), the GI50 (SF-539) was > 100 µM (inactive) and the GI50 (SNB-75) was > 100 µM (inactive). For the same compound, the GI50 (U-251) was > 100 µM (inactive), the GI50 (OVCAR-3) was > 100 µM (inactive) and the GI50 (HOP-18) was > 100 µM (inactive). For the same compound, the GI50 (HCC 2998) was > 100 µM (inactive), the GI50 (SNB-19) was > 100 µM (inactive) and the GI50 (NCI-H522) was > 100 µM (inactive). The GI50 (UACC-62) was > 100 µM (inactive), the GI50 (K562) was > 100 µM (inactive) and the GI50 (COLO 205) was > 100 µM (inactive). For the same compound, the GI50 (HCT-15) was greater than 100 µM, the GI50 (SR) was > 100 µM (inactive) and the GI50 (DLD-1) was > 100 µM (inactive). The GI50 (786-0) was > 100 µM (inactive), the GI50 (M19-MEL) was > 100 µM (inactive) and the GI50 (A498) was > 100 µM (inactive). The GI50 (SF-268) was > 100 µM (inactive), the GI50 (RXF 393) was > 100 µM (inactive) and the GI50 (RPMI-8226) was > 100 µM (inactive). The GI50 (SK-MEL-28) was > 100 µM (inactive), the GI50 (M14) was > 100 µM (inactive) and the GI50 (SNB-78) was > 100 µM (inactive). For the same compound, the GI50 (SK-MEL-2) was > 100 µM (inactive), the GI50 (ACHN) was > 100 µM (inactive) and the GI50 (DMS-114) was > 100 µM (inactive). The GI50 (UO-31) was > 100 µM (inactive), the GI50 (IGROV-1) was > 100 µM (inactive) and the GI50 (DMS-273) was > 100 µM (inactive). The GI50 (SN12C) was > 100 µM (inactive), the GI50 (A549) was > 100 µM (inactive) and the GI50 (HL-60) was > 100 µM (inactive). The GI50 (MOLT-4) was > 100 µM (inactive) and the GI50 (OVCAR-8) was > 100 µM (inactive).
In the case of `COc1ccc(/C=C(\C(C)=O)C(=O)Nc2ccccc2)cc1`, the GI50 (KM12) is reported as > 100 µM (inactive), the GI50 (LOX IMVI) is reported as > 100 µM (inactive) and the GI50 (OVCAR-5) is reported as > 100 µM (inactive). The GI50 (SK-OV-3) was > 100 µM (inactive), the GI50 (NCI-H226) was > 100 µM (inactive) and the GI50 (HCT-116) was > 100 µM (inactive). The GI50 (HOP-62) was > 100 µM (inactive), the GI50 (OVCAR-4) was > 100 µM (inactive) and the GI50 (HT-29) was > 100 µM (inactive). For the same compound, the GI50 (NCI-H460) was > 100 µM (inactive), the GI50 (SK-MEL-5) was > 100 µM (inactive) and the GI50 (TK-10) was > 100 µM (inactive). The GI50 (LXFL 529) was > 100 µM (inactive), the GI50 (CAKI-1) was > 100 µM (inactive) and the GI50 (UACC-257) was > 100 µM (inactive). The GI50 (SW-620) was > 100 µM (inactive), the GI50 (CCRF-CEM) was > 100 µM (inactive) and the GI50 (Malme-3M) was > 100 µM (inactive). The GI50 (SF-539) was > 100 µM (inactive), the GI50 (U-251) was > 100 µM (inactive) and the GI50 (OVCAR-3) was > 100 µM (inactive). The GI50 (HOP-18) was > 100 µM (inactive), the GI50 (HCC 2998) was > 100 µM (inactive) and the GI50 (SNB-19) was > 100 µM (inactive). For the same compound, the GI50 (NCI-H522) was > 100 µM (inactive), the GI50 (UACC-62) was > 100 µM (inactive) and the GI50 (K562) was > 100 µM (inactive). The GI50 (SF-295) was > 100 µM (inactive), the GI50 (HCT-15) was greater than 100 µM and the GI50 (SR) was > 100 µM (inactive). For the same compound, the GI50 (DLD-1) was > 100 µM (inactive), the GI50 (786-0) was > 100 µM (inactive) and the GI50 (M19-MEL) was > 100 µM (inactive). The GI50 (NCI-H23) was > 100 µM (inactive), the GI50 (SF-268) was > 100 µM (inactive) and the GI50 (RXF 393) was > 100 µM (inactive). For the same compound, the GI50 (RPMI-8226) was > 100 µM (inactive), the GI50 (SK-MEL-28) was > 100 µM (inactive) and the GI50 (M14) was > 100 µM (inactive). For the same compound, the GI50 (SNB-78) was > 100 µM (inactive), the GI50 (SK-MEL-2) was > 100 µM (inactive) and the GI50 (HOP-92) was > 100 µM (inactive). The GI50 (ACHN) was > 100 µM (inactive), the GI50 (DMS-114) was > 100 µM (inactive) and the GI50 (UO-31) was > 100 µM (inactive). For the same compound, the GI50 (IGROV-1) was > 100 µM (inactive), the GI50 (SN12C) was > 100 µM (inactive) and the GI50 (A549) was > 100 µM (inactive). The GI50 (HL-60) was > 100 µM (inactive), the GI50 (MOLT-4) was > 100 µM (inactive) and the GI50 (OVCAR-8) was > 100 µM (inactive). For the same compound, the GI50 (EKVX) was > 100 µM (inactive).
